One series can be described thus: Thermal stability test. In kind it is physicochemical. As for the experimental part:
The test compound was placed in a glass bottle and allowed to stand under the following conditions (1) and (2). After a certain period of time had elapsed, the residual rate of the active ingredient [compound (I)] in the test compound was measured by high performance liquid chromatography.
(1): Closed state, 60° C.;
(2): Non-closed state, 40° C., humidity 75%.
The measurement conditions in high performance liquid chromatography are as follows.
Column: L-column ODS [4.6 mm×250 mm, manufactured by Chemicals Evaluation and Research Institute, Japan]
Mobile layer: acetonitrile/22 mM potassium dihydrogenphosphate buffer/methanol=455/350/195 (V/V/V) (adjusted to pH 5.5 by phosphoric acid)
(§1) Column temperature: 40° C.
Detection wavelength: 220 nm
The residual rate (%) was calculated by the following formula.
The residual rate (%)=[1−(sum of peak area percentages of impurities and decomposed products)]×100

The nature of series [1]: Absorbability test in dog. The series is classed as in vivo, dog (male beagle). The conditions noted are these: for Cmax / AUC(0-t): fasted male beagle, tetragastrin-treated, oral gelatin capsule 100 mg/body, plasma; for AUC(0-t): read-out: AUC0-24 h. As for the experimental part:
Tetragastrin (6 μg/kg) was intramuscularly injected to the posterior region of thigh of a fasted male beagle (body weight: about 10 kg, n=4) to make the intragastric pH acidic 30 minutes before, immediately before and 30 minutes after administration of the test compound. The test compound was encapsulated in gelatin capsules at a dose of 100 mg/body and orally administered. About 3 ml of blood was collected from the median antebrachial vein using a heparin-treated glass syringe 0.5, 1, 2, 3, 4, 6, 8 and 24 hours after the administration. The collected blood was centrifuged to obtain plasma which was cryopreserved at −20° C. until measurement of the concentration of the test compound. One hundred μl of thawed plasma was mixed with 100 μl of 50% methanol, 800 μl of purified water, 100 μl of 0.1 N aqueous hydrochloric acid and 100 μl of an internal standard solution [a solution of the d7-compound (I) in 50% methanol, 50 ng/ml]. The eluate obtained by solid phase extraction using OASIS HLB was evaporated to dryness and then dissolved in 400 μl of 75% methanol. The solution was analyzed by LC/MS/MS.
A calibration curve was prepared by the same operation as above using 100 μl of dog control plasma without drug administration and 100 μl of a calibration curve standard solution [a solution of the compound (I) in 50% methanol, 0.1-1000 ng/ml].
The LC/MS/MS analysis conditions are shown below.
System: API4000 LC/MS/MS System (manufactured by
Applied Biosystems/MDS SCIEX)
Ion source: TurboIonSpray
Turbo heater gas: Air, 650° C., 70 psi
Nebulizer gas: Air, 70 psi
Orifice voltage: Compound (I) 106 V • d7-Compound (I) 106 V
Ion spray voltage: 5500 V
Collision energy: Compound (I) 35 V • d7-Compound (I) 35 V
Measurement mode: Positive/MRM
Monitor ion: Compound (I) m/z 583->167 • d7-Compound (I) m/z 590->167
System: Agilent 1100 Series (manufactured by Agilent Technologies)
Column: Inertsil ODS-3 5 μm, 2.1 mm I.D.×150 mm (manufactured by GL Sciences)
Mobile phase: Methanol/water/difluoroacetic acid (700/300/0.75)
as §1
The area under the concentration in plasma-time curve (AUC0-24h) and the maximum concentration in plasma (Cmax) as pharmacokinetic parameters indicative of drug absorbability were calculated from the results obtained according to the aforementioned method using the compound of Example 1 and the compound (I) as test compounds.

Series [2] in a line: Elution test (JP paddle method, pH 1.2). The series is classed as physicochemical. The settings on record: for Elution rate: pH 1.2, 900 ml, paddle 250 rpm, 100 mg equivalent/capsule. As for the experimental part:
A test was carried out using one gelatin capsule filled with the test compound (100 mg equivalent/capsule) and 900 ml of the disintegration test first solution (The Japanese Pharmacopoeia Fourteenth Edition, pH 1.2) as a test solution according to the elution test second method (The Japanese Pharmacopoeia Fourteenth Edition, paddle method) at 250 revolutions per minute. A sinker (The Japanese Pharmacopoeia Fourteenth Edition elution test method) was used for preventing flotation of the gelatin capsule. Five, 10, 15, 20, 30, 45, 60, 75, 90, 105 and 120 minutes after the start of the elution test, about 20 ml of the test solution was filtered through a filter having a pore size of 10 μm (manufactured by VARIAN, Full Flow Filters 10 μm) and directly fed into a flow cell (optical path length: 0.5 cm) in a circulating system. The absorbance was measured by a photodiode array spectrophotometer (HP 8452A). The absorbance of the compound (I) in each test solution at the time of collection of the test solution was compared with the absorbance of the following standard solution to measure the concentration of the compound (I) in the test solution.
The standard solution was prepared as follows. About 28 mg of the compound (I) was precisely weighed and added to a 500 ml volumetric flask. Five ml of ethanol (99.5%, special grade reagent) was added to the flask and the compound (I) was dissolved while providing ultrasonic stimulation as necessary. The disintegration test first solution was added to make the volume exactly 500 ml. The resulting solution was provided as the standard solution.
The elution test system is shown below.
Elution test device: DT-600 (manufactured by JASCO)
Ultraviolet visible spectrophotometer: HP 8452A Diodearray UV-Visible Spectrophotometer (manufactured by Hewlett Packard; now Agilent Technologies)
Cell positioner: HP 89075C Multicell Transport (manufactured by Hewlett Packard)
Delivery pump: HP 89092A Multichannel Pump (manufactured by Hewlett Packard)
Elution test software: Hewlett Packard Dissolution Testing Software, Revision 03.01 (manufactured by Hewlett Packard)
Analysis wavelength: 254 to 258 nm
Control wavelength: 322 to 326 nm
Optical path length of quartz cell: 0.5 cm

As to `Br.Br.CC1=C(C(=O)OC(C)C)C(c2cccc([N+](=O)[O-])c2)C(C(=O)OC2CN(C(c3ccccc3)c3ccccc3)C2)=C(N)N1` (single isomer, unassigned) [Example 1, 2-Amino-1,4-dihydro-6-methyl-4-(3-nitrophenyl)-3,5-pyridinedicarboxylic acid 3-(1-diphenylmethylazetidin-3-yl)ester 5-isopropyl ester dihydrobromide], the “Residual rate of Compound (I)” value in “Thermal stability test” (Condition (1): closed state, 60° C., time 0 month) worked out at 99.9%; in “Thermal stability test” (Condition (1): closed state, 60° C., time 1 month), 99.7%; in “Thermal stability test” (Condition (1): closed state, 60° C., time 3 months), 99.7%; in the series “Thermal stability test” (Condition (1): closed state, 60° C., time 6 months), 99.6%; in the series “Thermal stability test” (Condition (2): non-closed state, 40° C., humidity 75%, time 0 month), 99.9%; in the series “Thermal stability test” (Condition (2): non-closed state, 40° C., humidity 75%, time 1 month), 99.5%. Moreover, the “Residual rate of Compound (I)” value in the series “Thermal stability test” (Condition (2): non-closed state, 40° C., humidity 75%, time 3 months) came to 99.1%; in the series “Thermal stability test” (Condition (2): non-closed state, 40° C., humidity 75%, time 6 months) it was 98.9%. Also, in “Thermal stability test” (Condition (2): non-closed state, 40° C., humidity 75%), the “stability (in words)” value was “excellent stability”. The Cmax in series [1] came out at 248 ng/mL. Besides, the AUC(0-t) in series [1] was 2930 ng·h/mL. For the same molecule, the “bioavailability and concentration in blood (AUC0-24h and Cmax), in words” value in series [1] (oral, compared with free compound (I)) is “superior to those of the free compound (I)”. Further, the Elution rate in series [2] (5 min) came to 1.0%; in series [2] (10 min), 1.9%; in series [2] (15 min) it was 3.3%; in series [2] (20 min), 5.0%; in series [2] (30 min) it was 9.9%; in series [2] (45 min), 23.5%. Further, the Elution rate in series [2] (60 min) was found to be 35.5%; in series [2] (75 min) it was 40.8%; in series [2] (90 min) it was 45.1%; in series [2] (105 min), 49.6%; in series [2] (120 min), 52.6%. Besides, in series [2] (pH 1.2, compared with free compound (I)), the “elution properties (in words)” value is on record as “superior to those of the free compound (I)”.
Consider `CC1=C(C(=O)OC(C)C)C(c2cccc([N+](=O)[O-])c2)C(C(=O)OC2CN(C(c3ccccc3)c3ccccc3)C2)=C(N)N1` (stereo not shown) [Compound (I), 2-Amino-1,4-dihydro-6-methyl-4-(3-nitrophenyl)-3,5-pyridinedicarboxylic acid 3-(1-diphenylmethylazetidin-3-yl) ester 5-isopropyl ester, reference compound], for which, in series [1], the concentration peaked (Cmax) at 178 ng/mL. In addition, the AUC(0-t) in series [1] was determined as 1810 ng·h/mL. Further, the Elution rate in series [2] (5 min) is recorded as 0.5%; in series [2] (10 min), 0.7%; in series [2] (15 min) it was 1.0%; in series [2] (20 min) it was 1.3%; in series [2] (30 min) it was 1.8%; in series [2] (45 min) it was 2.5%. Also, the Elution rate in series [2] (60 min) was found to be 3.1%; in series [2] (75 min), 3.6%; in series [2] (90 min), 4.1%; in series [2] (105 min) it was 4.5%; in series [2] (120 min), 5.0%.

Broadly, the Cmax is the highest concentration seen after dosing.

These data come from patent US20090170827A1, “Acid Addition Salt of Dihydropyridine Derivative” (Daiichi Sankyo Company , Limited, priority 2005, published 2009).
